Results taken from ChEMBL document CHEMBL1201862, “PubChem BioAssay data set” (2004).
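Test compounds were applied to cells in 96-well plates for 48 hours at 5 doses. The concentration for 50% growth inhibition is given as GI50.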 Calls of active or inactive are those of the source. No stated cut-off is given here; in the data, active = GI50 up to about 1.1 µM and inactive = higher. Positions of bridges follow the written chain, without caps; N, C: chain ends. Non-standard residues stand in square brackets, D forms with d. Residues, ends and D or L forms follow the SMILES beside them. *: point of attachment. Cbz = O=C(OCc1ccccc1)*; Aib = CC(C)(N)C(=O)O; OBn = c1ccc(CO*)cc1; βAla = NCCC(=O)O

Columns and labels:
Assay in all cases: NCI tumour cell line growth inhibition, 48 h
[1] = tested on: A498
[2] = tested on: ACHN
[3] = tested on: BT-549
[4] = tested on: CAKI-1
[5] = tested on: HT-29
[6] = tested on: K562
[7] = tested on: LOX IMVI
[8] = tested on: M14
[9] = tested on: MCF7
[10] = tested on: MDA-MB-231
[11] = tested on: NCI-H23
[12] = tested on: OVCAR-3
[13] = tested on: OVCAR-8
[14] = tested on: PC-3
[15] = tested on: SF-539
[16] = tested on: SK-OV-3
[17] = tested on: SN12C
[18] = tested on: UACC-257
[19] = tested on: CCRF-CEM

Measured: GI50

c1ccc(CNCCN2CCNCC2)nc1
inactive: [1] > 100 µM | [2] > 100 µM | [3] > 100 µM | [4] > 100 µM | [5] > 100 µM | [6] > 100 µM | [7] > 100 µM | [8] > 100 µM | [9] > 100 µM | [10] > 100 µM | [11] > 100 µM | [12] > 100 µM | [13] > 100 µM | [14] > 100 µM | [15] > 100 µM | [16] > 100 µM | [17] > 100 µM | [18] > 100 µM

Nc1nnnn1CCO
inactive: [1] > 100 µM | [2] > 100 µM | [3] > 100 µM | [4] > 100 µM | [5] > 100 µM | [6] > 100 µM | [7] > 100 µM | [8] > 100 µM | [9] > 100 µM | [10] > 100 µM | [11] > 100 µM | [12] > 100 µM | [13] > 100 µM | [14] > 100 µM | [15] > 100 µM | [16] > 100 µM | [17] > 100 µM | [18] > 100 µM

CC1(C)Cc2ccccc2C(C)(Cl)C(=O)N1 (stereo not drawn)
inactive: [1] > 10 µM | [2] > 10 µM | [3] > 10 µM | [4] > 10 µM | [19] > 10 µM | [5] > 10 µM | [6] > 10 µM | [8] > 10 µM | [9] > 10 µM | [10] > 10 µM | [11] > 10 µM | [12] > 10 µM | [13] > 10 µM | [14] > 10 µM | [15] > 10 µM | [17] > 10 µM | [18] > 10 µM

COc1ccc(Oc2nc3c(N)cc(C(F)(F)F)cc3nc2-c2ccccc2)cc1
inactive: [1] 28.2 µM | [2] 28.2 µM | [3] 47.1 µM | [4] 21.8 µM | [19] 38.4 µM | [5] 10.8 µM | [6] > 100 µM | [7] 17.3 µM | [8] 13.3 µM | [9] 11.6 µM | [10] 24.8 µM | [11] 50.9 µM | [13] 26.9 µM | [14] 19.8 µM | [15] 23.5 µM | [16] 13.3 µM | [18] 39.2 µM

COc1ccc(C(Nc2ccccn2)c2cc(C(C)(C)C)cc(C(C)(C)C)c2O)cc1 (stereo not drawn)
inactive: [1] 54.8 µM | [2] 30.8 µM | [3] 17 µM | [4] 39.4 µM | [5] 22 µM | [6] 55 µM | [7] 13.9 µM | [8] 16.4 µM | [9] 16.2 µM | [10] 33.4 µM | [11] 17.1 µM | [12] 11.4 µM | [13] 43.4 µM | [14] 21.8 µM | [15] 48.1 µM | [16] 19.5 µM | [17] 18.1 µM | [18] 26.2 µM

C/C=C/C=C/C1=NN(c2cccc(S(=O)(=O)O)c2)C2(C1)SCC(=O)N2c1nc2ccccc2s1 (stereo not drawn)
inactive: [1] 50.5 µM | [2] 76.7 µM | [3] 35.3 µM | [4] 86.3 µM | [19] 24.2 µM | [5] > 100 µM | [6] 44 µM | [7] 19.6 µM | [8] > 100 µM | [9] 47.4 µM | [10] 56.2 µM | [11] 42.5 µM | [13] 36.2 µM | [14] 62.2 µM | [15] 45.9 µM | [17] 41.2 µM | [18] > 100 µM

COc1ccc(OC)c(C2CCc3cnc4nc(N)nc(N)c4c3C2)c1 (stereo not drawn)
inactive: [1] > 100 µM | [2] > 100 µM | [3] > 100 µM | [4] > 100 µM | [19] > 100 µM | [5] 70.1 µM | [6] 46.9 µM | [7] 62.1 µM | [8] 92.3 µM | [9] > 100 µM | [10] > 100 µM | [11] 64.6 µM | [12] > 100 µM | [13] 91.2 µM | [14] > 100 µM | [16] > 100 µM | [17] > 100 µM | [18] 61.9 µM

NC(c1ccccc1)(C(F)(F)F)P1(=O)OC(=O)c2ccccc2O1 (stereo not drawn)
inactive: [1] 84.1 µM | [2] > 100 µM | [3] > 100 µM | [4] > 100 µM | [5] > 100 µM | [6] > 100 µM | [8] > 100 µM | [9] > 100 µM | [10] > 100 µM | [11] > 100 µM | [12] > 100 µM | [13] > 100 µM | [14] > 100 µM | [15] > 100 µM | [16] 26.9 µM | [17] > 100 µM | [18] > 100 µM

CC(C)(C)OC(=O)N(O)[C@@H]1CC[C@H](n2cnc3c(N)ncnc32)C1
inactive: [1] > 100 µM | [2] > 100 µM | [3] > 100 µM | [19] > 100 µM | [5] > 100 µM | [6] > 100 µM | [7] > 100 µM | [8] > 100 µM | [9] > 100 µM | [10] > 100 µM | [11] > 100 µM | [12] > 100 µM | [13] > 100 µM | [14] > 100 µM | [15] > 100 µM | [16] > 100 µM | [17] > 100 µM | [18] > 100 µM

CN(C)CCOC(=O)c1ccc(N)cc1
inactive: [1] 38.4 µM | [2] 54.1 µM | [3] 51.1 µM | [4] 32.3 µM | [19] 20.7 µM | [5] 27 µM | [6] 30 µM | [7] 28.7 µM | [8] 17.6 µM | [9] 32.6 µM | [10] 16.1 µM | [11] 74.1 µM | [12] 45.2 µM | [13] 70.8 µM | [14] 12.1 µM | [16] 56.6 µM | [17] 48.2 µM | [18] 19.4 µM

CC1(C)NC(=O)C(NC(=O)C(CC(=O)OCc2ccccc2)NC(=O)OCc2ccccc2)CCCCNC(=O)CCNC1=O (stereo not drawn) (Cbz-D(OBn)K[Aib][βAla]; lactam 2-C; configuration not given here)
inactive: [1] > 100 µM | [2] > 100 µM | [3] > 100 µM | [4] > 100 µM | [5] > 100 µM | [6] > 100 µM | [7] > 100 µM | [8] > 100 µM | [9] > 100 µM | [10] > 100 µM | [11] > 100 µM | [12] > 100 µM | [13] > 100 µM | [14] > 100 µM | [15] > 100 µM | [16] > 100 µM | [17] > 100 µM
